One assay has as its system NCI-H460 cells. In words: Proliferation assay NCI-H460. It is filed as cell-based, human. To be noted: 4 days, crystal violet, read-out: Inhibition of NCI-H460 cell proliferation IC50. Here is the method: Cultivated tumour cells (HeLa, human cervical tumour cells, ATCC CCL-2; NCI-H460, human non-small cell lung carcinoma cells, ATCC HTB-177; A2780, human ovarian carcinoma cells, ECACC #93112519; DU 145, hormone-independent human prostate carcinoma cells, ATCC HTB-81; HeLa-MaTu-ADR, multidrug-resistant human cervical carcinoma cells, EPO-GmbH Berlin; Caco-2, human colorectal carcinoma cells, ATCC HTB-37; B16F10, mouse melanoma cells, ATCC CRL-6475) were plated at a density of 5,000 cells/well (DU145, HeLa-MaTu-ADR), 3,000 cells/well (NCI-H460, HeLa), 2,500 cells/well (A2780), 1,500 cells/well (Caco-2), or 1,000 cells/well (B16F10) in a 96-well multititer plate in 200 μL of their respective growth medium supplemented 10% fetal calf serum. After 24 hours, the cells of one plate (zero-point plate) were stained with crystal violet (see below), while the medium of the other plates was replaced by fresh culture medium (200 μl), to which the test substances were added in various concentrations (0 μM, as well as in the range of 0.001-10 μM). The cells were incubated for 4 days in the presence of test substances. Cell proliferation was determined by staining the cells with crystal violet: the cells were fixed by adding 20 μl/measuring point of an 11% glutaric aldehyde solution for 15 minutes at room temperature. After three washing cycles of the fixed cells with water, the plates were dried at room temperature. The cells were stained by adding 100 μl/measuring point of a 0.1% crystal violet solution (pH 3.0). After three washing cycles of the stained cells with water, the plates were dried at room temperature. The dye was dissolved by adding 100 μl/measuring point of a 10% acetic acid solution. The extinction was determined by photometry at a wavelength of 595 nm. The change of cell number, in percent, was calculated by normalization of the measured values to the extinction values of the zero-point plate (=0%) and the extinction of the untreated (0 μm) cells (=100%). The IC50 values (inhibitory concentration at 50% of maximal effect) were determined by means of a 4 parameter fit. Non-adherent MOLM-13 human acute myeloid leukemia cells (DSMZ ACC 554) were seeded at a density of 5,000 cells/well in a 96-well multititer plate in 100 μL of growth medium supplemented 10% fetal calf serum. After 24 hours, cell viability of one plate (zero-point plate) was determined with the Cell Titre-Glo Luminescent Cell Viability Assay (Promega), while 50 μL of test compound containing medium was added to the wells of the other plates (final concentrations in the range of 0.001-1 μM and DMSO controls). Cell viability was assessed after 72-hour exposure with the Cell Titre-Glo Luminescent Cell Viability Assay (Promega). IC50 values (inhibitory concentration at 50% of maximal effect) were determined by means of a 4 parameter fit on measurement data which were normalized to vehicle (DMSO) treated cells (=100%) and measurement readings taken immediately before compound exposure (=0%).

A further assay deals with T1, CDK2/CycE (Homo sapiens, UniProt P24941).
T1 construct: GST; purchased ProQinase GmbH (Freiburg, Germany); host or cells: insect cells (Sf9)
Nature of the assay: CDK2/CycE high ATP kinase assay (TR-FRET, Method 2b). The assay is classed as biochemical. To be noted: 2 mM ATP. The procedure: 2b. CDK2/CycE High ATP Kinase Assay:
CDK2/CycE-inhibitory activity of compounds of the present invention at 2 mM adenosine-tri-phosphate (ATP) was quantified employing the CDK2/CycE TR-FRET (TR-FRET=Time Resolved Fluorescence Resonance Energy Transfer) assay as described in the following paragraphs.
Recombinant fusion proteins of GST and human CDK2 and of GST and human CycE, expressed in insect cells (Sf9) and purified by Glutathion-Sepharose affinity chromatography, were purchase from ProQinase GmbH (Freiburg, Germany). As substrate for the kinase reaction biotinylated peptide biotin-Ttds-YISPLKSPYKISEG (C-terminus in amid form) was used which can be purchased e.g. from the company JERINI peptide technologies (Berlin, Germany).
For the assay 50 nl of a 100 fold concentrated solution of the test compound in DMSO was pipetted into a black low volume 384 well microtiter plate (Greiner Bio-One, Frickenhausen, Germany), 2 μl of a solution of CDK2/CycE in aqueous assay buffer [50 mM Tris/HCl pH 8.0, 10 mM MgCl2, 1.0 mM dithiothreitol, 0.1 mM sodium ortho-vanadate, 0.01% (v/v) Nonidet-P40 (Sigma)] were added and the mixture was incubated for 15 min at 22° C. to allow pre-binding of the test compounds to the enzyme before the start of the kinase reaction. […] The concentration of CDK2/CycE was adjusted depending of the activity of the enzyme lot and was chosen appropriate to have the assay in the linear range, typical concentrations were in the range of 15 ng/ml. The reaction was stopped by the addition of 5 μl of a solution of TR-FRET detection reagents (0.2 μM streptavidine-XL665 [Cisbio Bioassays, Codolet, France] and 1 nM anti-RB(pSer807/pSer811)-antibody from BD Pharmingen [#558389] and 1.2 nM LANCE EU-W1024 labeled anti-mouse IgG antibody [Perkin-Elmer, product no. AD0077, as an alternative a Terbium-cryptate-labeled anti-mouse IgG antibody from Cisbio Bioassays can be used]) in an aqueous EDTA-solution (100 mM EDTA, 0.2% (w/v) bovine serum albumin in 100 mM HEPES pH 7.5).
The resulting mixture was incubated 1 h at 22° C. to allow the formation of complex between the phosphorylated biotinylated peptide and the detection reagents. Subsequently the amount of phosphorylated substrate was evaluated by measurement of the resonance energy transfer from the Eu-chelate to the streptavidine-XL. Therefore, the fluorescence emissions at 620 nm and 665 nm after excitation at 350 nm were measured in a TR-FRET reader, e.g. a Rubystar (BMG Labtechnologies, Offenburg, Germany) or a Viewlux (Perkin-Elmer). The ratio of the emissions at 665 nm and at […] was taken as the measure for the amount of phosphorylated substrate. The data were normalised (enzyme reaction without inhibitor=0% inhibition, all other assay components but no enzyme=100% inhibition).

13 compounds from patent US9963464B2, “Macrocyclic compounds” (Bayer Pharma Aktiengesellschaft, priority 2014, dated 2018) can be followed below.

Like-named read-outs stand apart in the source and are kept apart here.

As to `CS(=O)(Cc1cc2nc(c1)OCCCOc1cc(F)ccc1-c1cc(ncc1F)N2)=NC(=O)OCCCl` (racemic) [Example 21, (rac)-2-chloroethyl [{[15,19-difluoro-3,4-dihydro-2H,11H-10,6-(azeno)-12,16-(metheno)-1,5,11,13-benzodioxadiazacyclooctadecin-8-yl]methyl}(methyl)oxido-λ^6-sulfanylidene]carbamate], the IC50 in the assay with NCI-H460 cells (Homo sapiens, NCI-H460, 96 h) stood at 28 nM; at CDK2/CycE, 74.8 nM.

As to `CS(=O)(=O)N=S(C)(=O)Cc1cc2nc(c1)OCCCOc1cc(F)ccc1-c1cc(ncc1F)N2` (racemic) [Example 22, (rac)-N-[{[15,19-difluoro-3,4-dihydro-2H,11H-10,6-(azeno)-12,16-(metheno)-1,5,11,13-benzodioxadiazacyclooctadecin-8-yl]methyl}(methyl)oxido-λ^6-sulfanylidene]methanesulfonamide], the IC50 with NCI-H460 cells (Homo sapiens, NCI-H460, 96 h) stood at 36 nM; against CDK2/CycE it was 195 nM.

For `CS(=O)(Cc1cc2nc(c1)OCCCOc1cc(F)ccc1-c1cc(ncc1F)N2)=NS(=O)(=O)CCN` (racemic) [Example 23, (rac)-2-amino-N-[{[15,19-difluoro-3,4-dihydro-2H,11H-10,6-(azeno)-12,16-(metheno)-1,5,11,13-benzodioxadiazacyclooctadecin-8-yl]methyl}(methyl)oxido-λ^6-sulfanylidene]ethanesulfonamide], the IC50 in the assay with NCI-H460 cells (Homo sapiens, NCI-H460, 96 h) was 741 nM; against CDK2/CycE it was 272 nM.

In the case of `CS(=O)(Cc1cc2nc(c1)OCCCOc1cc(F)ccc1-c1cc(ncc1F)N2)=NS(=O)(=O)CCN.O=C(O)C(F)(F)F` (racemic) [Example 24, (rac)-2-{[{[15,19-difluoro-3,4-dihydro-2H,11H-10,6-(azeno)-12,16-(metheno)-1,5,11,13-benzodioxadiazacyclooctadecin-8-yl]methyl}(methyl)oxido-λ^6-sulfanylidene]sulfamoyl}ethanaminium trifluoroacetate], the IC50 was determined as 391 nM in the assay on NCI-H460 cells (trifluoroacetate) and 166 nM at CDK2/CycE.

With `CS(=O)(Cc1cc2nc(c1)OCCCOc1cc(F)ccc1-c1cc(ncc1F)N2)=NC(=O)OCCN` (racemic) [Example 25, (rac)-2-aminoethyl [{[15,19-difluoro-3,4-dihydro-2H,11H-10,6-(azeno)-12,16-(metheno)-1,5,11,13-benzodioxadiazacyclooctadecin-8-yl]methyl}(methyl)oxido-λ^6-sulfanylidene]carbamate], the IC50 with NCI-H460 cells (Homo sapiens, NCI-H460, 96 h) came out at 109 nM; at CDK2/CycE it was 18 nM.

`CS(=N)(=O)Cc1cc2nc(c1)OCCCOc1cc(F)ccc1-c1cc(ncc1F)N2` (single isomer, unassigned; enantiomer 1) [Example 6, 15,19-Difluoro-8-[(S-methylsulfonimidoyl)methyl]-3,4-dihydro-2H,11H-10,6-(azeno)-12,16-(metheno)-1,5,11,13-benzodioxadiazacyclooctadecine; Enantiomer 1]: the IC50 with NCI-H460 cells (Homo sapiens, NCI-H460, 96 h) turned out to be 14 nM; at CDK2/CycE it was 38.3 nM.

For the compound `CS(=N)(=O)Cc1cc2nc(c1)OCCCOc1cc(F)ccc1-c1cc(ncc1F)N2` (single isomer, unassigned; enantiomer 2) [Example 7, 15,19-Difluoro-8-[(S-methylsulfonimidoyl)methyl]-3,4-dihydro-2H,11H-10,6-(azeno)-12,16-(metheno)-1,5,11,13-benzodioxadiazacyclooctadecine; Enantiomer 2], the IC50 with NCI-H460 cells amounted to 17 nM; against CDK2/CycE, 50.4 nM.

`CSCc1cc2cc(c1)OCCCOc1cc(F)ccc1-c1nc(ncc1F)N2` [Example 2, 15,19-Difluoro-8-[(methylsulfanyl)methyl]-3,4-dihydro-2H,11H-12,16-(azeno)-10,6-(metheno)-1,5,11,13-benzodioxadiazacyclooctadecine]: the IC50 is 56 nM with NCI-H460 cells (Homo sapiens, NCI-H460, 96 h) and 640 nM on CDK2/CycE.

As for `CSCc1cc2nc(c1)OCCCOc1cc(F)ccc1-c1cc(ncc1F)N2` [Example 3, 15,19-Difluoro-8-[(methylsulfanyl)methyl]-3,4-dihydro-2H,11H-10,6-(azeno)-12,16-(metheno)-1,5,11,13-benzodioxadiazacyclooctadecine], the IC50 in the assay with NCI-H460 cells (Homo sapiens, NCI-H460, 96 h) is 39 nM; on CDK2/CycE it was 128 nM.

`CS(=O)(=O)Cc1cc2nc(c1)OCCCOc1cc(F)ccc1-c1cc(ncc1F)N2` [Example 8, 15,19-difluoro-8-[(methylsulfonyl)methyl]-3,4-dihydro-2H,11H-10,6-(azeno)-12,16-(metheno)-1,5,11,13-benzodioxadiazacyclooctadecine]: the IC50 with NCI-H460 cells (Homo sapiens, NCI-H460, 96 h) turned out to be 20 nM; against CDK2/CycE it was 33.6 nM.

As to `CSCc1cc2nc(c1)OCCCCOc1cc(F)ccc1-c1cc(ncc1F)N2` [Example 12, 16,20-Difluoro-9-[(methylsulfanyl)methyl]-2,3,4,5-tetrahydro-12H-11,7-(azeno)-13,17-(metheno)-1,6,12,14-benzodioxadiazacyclononadecine], the IC50 with NCI-H460 cells (Homo sapiens, NCI-H460, 96 h) came out at 63 nM; against CDK2/CycE it was 890 nM.

For the compound `NCCS(=O)(=O)Cc1cc2nc(c1)OCCCOc1cc(F)ccc1-c1cc(ncc1F)N2` [Example 26, 2-({[15,19-difluoro-3,4-dihydro-2H,11H-10,6-(azeno)-12,16-(metheno)-1,5,11,13-benzodioxadiazacyclooctadecin-8-yl]methyl}sulfonyl)ethanamine], the IC50 in the assay on NCI-H460 cells (Homo sapiens, NCI-H460, 96 h) was 395 nM; on CDK2/CycE, 43.7 nM.

For the compound “({[15,19-difluoro-3,4-dihydro-2H,11H-10,6-(azeno)-12,16-(metheno)-1,5,11,13-benzodioxadiazacyclooctadecin-8-yl]methyl}sulfonyl)acetic acid [Example 27]”, the figures for the IC50 in the assay with NCI-H460 cells and on CDK2/CycE were 3040 nM and 6.3 nM, respectively.
